Source: patent US6706880B2 (Research Triangle Institute, priority 1990, dated 2004)
Where two headings read alike, the source gives them in different places.

Assays:
serotonin transporter = target: T1, serotonin transporter (Rattus norvegicus, UniProt P31652); experiment: Inhibition of [3H]paroxetine radioligand binding at the serotonin transporter
T1 construct: from tissue
Excerpt: (§1) Illustrative in vitro assays for binding are described in Boja et al Ann. NY Acad. Sci. 654:282-291 (1992), which is incorporated herein by reference in its entirety. […] Alternatively, the compounds may be analyzed by their ability to inhibit reuptake of a labelled neurotransmitter in a sample, in particular, in synaptosomes.

dopamine transporter = dopamine transporter (UniProt P23977); format: binding
Excerpt: as §1

[1] = target: norepinephrine transporter (UniProt Q9WTR4); experiment: Inhibition of [3H]nisoxetine radioligand binding at the norepinephrine transporter
Excerpt: as §1

[2] = 5-HT IC50 for inhibition of radioligand binding, 5-HT=[3H] paroxetine
[3] = read-out: DA IC50 for inhibition of radioligand binding, DA=[3H]WIN 35,428
[4] = read-out: NEN IC50 for inhibition of radioligand binding, NEN=[3H] nisoxetine
[5] = 5-HT=[3H] paroxetine, read-out: 5-HT IC50 for inhibition of radioligand binding

T1 sequence (P31652 whole entry): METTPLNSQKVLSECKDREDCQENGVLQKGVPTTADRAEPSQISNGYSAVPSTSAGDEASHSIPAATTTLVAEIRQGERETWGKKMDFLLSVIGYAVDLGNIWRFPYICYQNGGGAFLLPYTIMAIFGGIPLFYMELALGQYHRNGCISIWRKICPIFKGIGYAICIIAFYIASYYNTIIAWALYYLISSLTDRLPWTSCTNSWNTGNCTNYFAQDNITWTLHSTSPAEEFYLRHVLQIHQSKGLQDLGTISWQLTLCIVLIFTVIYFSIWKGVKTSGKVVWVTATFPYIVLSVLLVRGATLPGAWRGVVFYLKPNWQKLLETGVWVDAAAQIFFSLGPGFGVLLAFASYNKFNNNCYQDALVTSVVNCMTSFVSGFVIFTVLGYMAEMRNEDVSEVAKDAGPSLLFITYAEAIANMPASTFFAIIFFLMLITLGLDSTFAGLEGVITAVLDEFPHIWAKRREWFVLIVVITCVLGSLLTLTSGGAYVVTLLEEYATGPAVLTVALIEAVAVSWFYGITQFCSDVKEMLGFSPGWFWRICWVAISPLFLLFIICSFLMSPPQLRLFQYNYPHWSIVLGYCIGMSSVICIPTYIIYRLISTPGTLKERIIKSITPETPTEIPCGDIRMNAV

SMILES	IC50 (serotonin transporter; [2]) [nM]	IC50 (dopamine transporter; [3]) [nM]	IC50 [1, 4] [nM]	IC50 (serotonin transporter; [5]) [nM]	potency at the serotonin site (serotonin transporter; in words)	selectivity relative to the dopamine and norepinephrine sites (serotonin transporter; in words)	IC50 (serotonin transporter; read-out: IC50 5-HT [3H] Paroxetine, Table III) [nM]	IC50 (dopamine transporter; read-out: IC50 DA [3H] WIN 35,428, Table III) [nM]	IC50 ([1]; read-out: IC50 NE [3H] Nisoxetine, Table III) [nM]
COC(=O)C1C(c2ccc(C)c(I)c2)CC2CCC1N2C (centres unmarked) [RTI-4229-280]	6.81	3.12	484						
CC#Cc1ccc(C2CC3CCC(C2C(=O)OC)N3C)cc1 (centres unmarked) [RTI-4229-281]		2.37	820	15.7					
CCCc1ccc(C2CC3CCC(C2C(=O)OC)N3C)cc1 (centres unmarked) [RTI-4229-282]		68.5	3920	70.4					
C=C(C)c1ccc(C2CC3CCC(C2C(=O)OC)N3C)cc1 (centres unmarked) [RTI-4229-283]		14.3	3130	3.13					
CCc1ccc(C2CC3CCC(C2C(=O)OC)N3C)cc1 (centres unmarked) [RTI-4229-287]	1690	325	17800						
CCc1ccc(C2CC3CCC(C2C(=O)OC)N3C)cc1I (centres unmarked) [RTI-4229-295]	2.96	21.3	1350						
C/C=C/c1ccc(C2CC3CCC(C2C(=O)OC)N3C)cc1 (centres unmarked) [RTI-4229-296]		5.29	1590	11.4					
COC(=O)[C@H]1[C@@H](c2ccc(C#Cc3ccccc3)cc2)C[C@@H]2CC[C@H]1N2C [RTI-4229-298]	46.8	3.7	347						
C/C=C\c1ccc(C2C[C@H]3CCC(C2C(=O)OC)N3C)cc1 (some centres unmarked) [RTI-4229-304]	7.09	15	2800						
COC(=O)C1C2CCC(CC1c1ccc(C)cc1)N2 (centres unmarked) [RTI-4229-305]	1.59	1.24	21.8						
CCC#Cc1ccc(C2CC3CCC(N3)C2C(=O)OC)cc1 (centres unmarked) [RTI-4229-307]	3.16	6.11	116						
C=Cc1ccc(C2CC3CCC(N3)C2C(=O)OC)cc1 (centres unmarked) [RTI-4229-309]		1.73	14.9	2.25					
COC(=O)[C@@H]1C2CCC(C[C@@H]1c1ccc3ccccc3c1)N2C (some centres unmarked) [RTI-4229-318]	0.8	0.51	21.1						
COC(=O)C1C(c2ccc3ccccc3c2)CC2CCC1N2C (centres unmarked) [RTI-4229-319]	11.4	1.1	70.2						
CCc1cc([C@@H]2C3CCC(C[C@@H]2c2ccc(Cl)cc2)N3C)on1 (some centres unmarked) [RTI-4229-334]	3090	0.5	120						
CC(C)c1cc([C@@H]2C3CCC(C[C@@H]2c2ccc(Cl)cc2)N3C)on1 (some centres unmarked) [RTI-4229-335]	2320	1.19	954						
Cc1ccc(-c2cc([C@@H]3C4CCC(C[C@@H]3c3ccc(Cl)cc3)N4C)on2)cc1 (some centres unmarked) [RTI-4229-336]	5740	4.09	1710						
CCc1ccc(C2CC3CCC(N3)C2C(=O)OCc2ccccc2)cc1 (centres unmarked) [RTI-4229-338]	7.41	1100	3370						
CN1C2CCC1[C@@H](c1cc(-c3ccc(Cl)cc3)no1)[C@@H](c1ccc(Cl)cc1)C2 (some centres unmarked) [RTI-4229-345]	> 76000	6.42	5290						
COc1ccc(-c2cc([C@@H]3C4CCC(C[C@@H]3c3ccc(Cl)cc3)N4C)on2)cc1 (some centres unmarked) [RTI-4229-346]	5880	1.57	762						
CN1C2CCC1[C@@H](c1cc(-c3ccc(F)cc3)no1)[C@@H](c1ccc(Cl)cc1)C2 (some centres unmarked) [RTI-4229-347]	7260	1.86	918						
CN1C2CCC1C(c1ccccc1)C(c1ccccc1)C2 (centres unmarked) [RTI-4229-348]		28.2	2670	34700					
COC(=O)C1C(c2ccc(I)cc2)CC2CCC1N2C (centres unmarked) [RTI-4229-352]		2.86	52.4	64.9					
CCc1ccc(C2CC3CCC(N3)C2C(=O)OC)cc1I (centres unmarked) [RTI-4229-353]		331	148	0.69	highly potent	selective	0.69 ± 0.07	331 ± 17	148 ± 9.2
Cc1ccc(C2CC3CCC(C2c2ccccc2)N3C)cc1 (centres unmarked) [RTI-4229-422]	1100	1.96	6090						
